Experimental data: patent US20210170033A1, “NOVEL CONJUGATES OF A PHARMACEUTICAL AGENT AND A MOIETY CAPABLE OF BINDING TO A GLUCOSE SENSING PROTEIN” (SANOFI, priority 2017, published 2021)
Read-outs that look alike come from different tables or passages of the source.

Legend:
[1] = system: A2780 cells; assay: Deoxy-glucose uptake assay in A2780 cells (14C 2-deoxy-D-glucose transport); type: cell-based; settings: Homo sapiens, 20 min; inhibition of 14C 2-deoxy-D-glucose transport into A2780 cells; 20 min compound incubation; read-out: IC50
Outline: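 Radiolabelled 2-deoxy-D-glucose transport over 20 min was scintillation-counted in A2780 cells, grown 48 h, after 20 min compound exposure in KRB. Untreated cells gave the 100% reference, with Cytochalasin B defining background. IC50 values were regressed from triplicate means across 7 or 14 concentrations.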

[2] = system: A2780 Human Carcinoma Cells; assay: Glucose displacement assay (ATP measurement, CellTiter-Glo); type: cell-based; settings: ATP measurement in A2780 cells, 0.5 μM rotenone
Method: 2. Glucose Displacement Assay (ATP Measurement)
30,000 A2780 Human Carcinoma Cells are seeded per well in a Greiner 96-well plate. Cells are expanded and cultured in RPMI 1640 medium+GlutaMAX® with 10% FCS and 11 mM glucose, at 37° C. with 5% CO2. After 44 h, culture media is changed and washed once with PBS to starvation media consisting of RPMI 1640 medium with 1% FCS without glucose for 2 hours. Cells are then washed with KRB buffer, followed by incubation for 20 min at 37° C. of the treatment mix consisting of 60 μL KRB buffer/well and 10 μL of compound or DMSO 10×. 10 μl of rotenone is added to the mix to a final concentration of 0.5 μM. Cell plates are left for 2 min at room temperature. 20 μL of different glucose concentrations are added to the mix—typically 0.1 to 10 mM range—.
Cells are incubated for another 15 min at 37° C., before measuring ATP with the CellTiter-Glo® Assay, under manufacturer's guidance, but without the equilibration step at room temperature for 30 min. In brief, 100 μl of Cell-Titer-Glo® Reagent is added to the wells containing already 100 μl of the previous reaction mix. Plates are mixed for 2 min at 800 rpm, followed by incubation at room temperature for 10 min to stabilize the luminescent signal. Luminescence is then recorded with the Tekan Ultra Evolution reader.

[3] = 1 mM glucose, read-out: IC50 [μM] at 1 mM glucose
[4] = 10 mM glucose, read-out: IC50 [μM] at 10 mM glucose

IC50 [1] [µM]	IC50 [2, 3] [µM]	IC50 [2, 4] [µM]	Compound
7.3	5.6	> 33	COc1cc(OCc2ccccc2)c(Cl)cc1C(=O)N[C@H]1[C@@H](OC)O[C@H](CO)[C@@H](O)[C@@H]1O [Example 232]
1.1	1.67	21.1	COc1cc(OCc2ccccc2)c(Cl)cc1C(=O)O[C@H]1[C@@H](OC)O[C@H](CO)[C@@H](O)[C@@H]1O [Example 233]
0.1	0.12	0.29	C#CCCCn1c(COc2c(Cl)cc(C(=O)O[C@H]3[C@@H](OC)O[C@H](CO)[C@@H](O)[C@@H]3O)c(C)c2Cl)nc2ccc(OC)cc21 [Example 291]
0.1	0.13	1.12	C#CCCCn1c(COc2c(Cl)cc(C(=O)O[C@H]3[C@@H](OC)O[C@H](CO)[C@@H](O)[C@@H]3O)c(C)c2Cl)nc2cc(OC)ccc21 [Example 292]
0.1	0.16	1.28	C#CCCCn1c(COc2cc(OC)c(C(=O)O[C@H]3[C@@H](OC)O[C@H](CO)[C@@H](O)[C@@H]3O)cc2Cl)nc2ccccc21 [Example 294]
35.8	8.85	> 33	COC(=O)[C@@H](N)CCC(=O)NCc1cccc(COc2c(Cl)cc(C(=O)O[C@H]3[C@@H](OC)O[C@H](CO)[C@@H](O)[C@@H]3O)c(C)c2Cl)c1 [Example 308]
0.3	0.17	0.71	CCOC(=O)CCCCCn1cc(CCCn2c(COc3c(Cl)cc(C(=O)O[C@H]4[C@@H](OC)O[C@H](CO)[C@@H](O)[C@@H]4O)c(C)c3Cl)nc3ccccc32)nn1 [Example 309]
0.4	0.17	0.89	CCOC(=O)CCCn1cc(CCCn2c(COc3c(Cl)cc(C(=O)O[C@H]4[C@@H](OC)O[C@H](CO)[C@@H](O)[C@@H]4O)c(C)c3Cl)nc3ccccc32)nn1 [Example 310]
0.4	0.12	0.7	CO[C@H]1O[C@H](CO)[C@@H](O)[C@H](O)[C@H]1OC(=O)c1cc(Cl)c(OCc2nc3ccccc3n2CCCc2cn(CCOCCOCC(=O)OC(C)(C)C)nn2)c(Cl)c1C [Example 311]
9.7	2.81	28.5	C#CCCCn1c(COc2cc(Cl)cc(C(=O)O[C@H]3[C@@H](OC)O[C@H](CO)[C@@H](O)[C@@H]3O)c2)nc2ccccc21 [Example 314]
12.9	2.3	> 33	COC(=O)/C=C/c1ccc(COc2c(Cl)cc(C(=O)N[C@H]3[C@@H](OC)O[C@H](CO)[C@@H](O)[C@@H]3O)c(C)c2Cl)cc1 [Example 315]
1.6	1.52	> 33	CO[C@H]1O[C@H](CO)[C@@H](O)[C@H](O)[C@H]1NC(=O)c1cc(Cl)c(OCc2ccc(OCC(=O)OC(C)(C)C)cc2)c(Cl)c1C [Example 316]
7.4	3	8.03	CO[C@H]1O[C@H](CO)[C@@H](O)[C@H](O)[C@H]1OC(=O)c1cc(Cl)c(OCc2ccc(OCC(=O)OC(C)(C)C)cc2)c(Cl)c1C [Example 319]
0.2	0.56	1.2	C#CCCCCCCn1c(COc2c(Cl)cc(C(=O)O[C@H]3[C@@H](OC)O[C@H](CO)[C@@H](O)[C@@H]3O)c(C)c2Cl)nc2ccccc21 [Example 321]
20	1.42	7.06	COC(=O)[C@H](CCCCNC(=O)CCCCCn1c(COc2c(Cl)cc(C(=O)N[C@H]3[C@@H](OC)O[C@H](CO)[C@@H](O)[C@@H]3O)c(C)c2Cl)nc2ccccc21)NC(=O)OC(C)(C)C [Example 322]
2.1	0.94	7.98	CO[C@H]1O[C@H](CO)[C@@H](O)[C@H](O)[C@H]1NC(=O)c1cc(Cl)c(OCc2noc3ccc(C)cc23)c(Cl)c1C [Example 324]
0.3	1.2	7.19	CO[C@H]1O[C@H](CO)[C@@H](O)[C@H](O)[C@H]1OC(=O)c1cc(Cl)c(OCc2noc3ccc(C)cc23)c(Cl)c1C [Example 325]
9.4	4.99	> 33	C#CCCCn1c(COc2cc(C(=O)O[C@H]3[C@@H](OC)O[C@H](CO)[C@@H](O)[C@@H]3O)cc3c2cnn3C)nc2ccccc21 [Example 327]

IC50 [1] [µM]	IC50 [2, 3] [µM]	IC50 [2, 4] [µM]	Compound
0.01	0.2	0.94	C#CCCCn1c(COc2c(Cl)cc(C(=O)O[C@H]3[C@@H](OC)O[C@H](CO)[C@@H](O)[C@@H]3O)c(C)c2Cl)nc2ccc(C)cc21 [Example 329]
0.3	0.92	3.52	C#CCCCn1c(COc2c(Cl)cc(C(=O)O[C@H]3[C@@H](OC)O[C@H](CO)[C@@H](O)[C@@H]3O)c(C)c2Cl)nc2cc(C)ccc21 [Example 330]
1.1	0.36	1.79	C#CCCC(=O)Nc1cc(COc2c(Cl)cc(C(=O)O[C@H]3[C@@H](OC)O[C@H](CO)[C@@H](O)[C@@H]3O)c(C)c2Cl)ccc1OC [Example 331]
1.6	0.72	2.61	CO[C@H]1O[C@H](CO)[C@@H](O)[C@H](O)[C@H]1NC(=O)c1cc(Cl)c(OCc2nc3ccccc3n2CCCCCCNC(=O)[C@H](CC(C)C)N(C)C(=O)OC(C)(C)C)c(Cl)c1C [Example 341]
34.2	2.18	> 100	COC(=O)[C@H](CCC(=O)NCCCCCCn1c(COc2c(Cl)cc(C(=O)N[C@H]3[C@@H](OC)O[C@H](CO)[C@@H](O)[C@@H]3O)c(C)c2Cl)nc2ccccc21)NC(=O)OC(C)(C)C [Example 342]
1	1.11	8.59	CO[C@H]1O[C@H](CO)[C@@H](O)[C@H](O)[C@H]1OC(=O)c1cc(Cl)c(OCc2cccc(CNC(=O)CCC(=O)OC(C)(C)C)c2)c(Cl)c1C [Example 344]
12.4	2.41	6.59	CO[C@H]1O[C@H](CO)[C@@H](O)[C@H](O)[C@H]1OC(=O)c1cc(Cl)c(OCc2cccc(NCCCC(=O)OC(C)(C)C)c2)c(Cl)c1C [Example 345]
2.8	0.86	5.28	CO[C@H]1O[C@H](CO)[C@@H](O)[C@H](O)[C@H]1OC(=O)c1cc(Cl)c(OCc2cccc(NC(=O)CCC(=O)OC(C)(C)C)c2)c(Cl)c1C [Example 347]
2.5	1.46	7.76	CO[C@H]1O[C@H](CO)[C@@H](O)[C@H](O)[C@H]1OC(=O)c1cc(Cl)c(OCc2cccc(CNC(=O)CCCC(=O)OC(C)(C)C)c2)c(Cl)c1C [Example 349]
0.8	0.55	1.97	CO[C@H]1O[C@H](CO)[C@@H](O)[C@H](O)[C@H]1OC(=O)c1cc(Cl)c(OCc2cccc(NC(=O)CCCC(=O)OC(C)(C)C)c2)c(Cl)c1C [Example 351]
0.04	0.26	1.05	COC(=O)/C=C/c1ccc(COc2cc(OC)c(C(=O)O[C@H]3[C@@H](OC)O[C@H](CO)[C@@H](O)[C@@H]3O)cc2Cl)cc1 [Example 352]
0.1	1.5	6.07	COc1cc(OCc2cn3c(C)cccc3n2)c(Cl)cc1C(=O)O[C@H]1[C@@H](OC)O[C@H](CO)[C@@H](O)[C@@H]1O [Example 353]
2.7	3.68	12.1	COC(=O)CCc1ccc(COc2cc(OC)c(C(=O)N[C@H]3[C@@H](OC)O[C@H](CO)[C@@H](O)[C@@H]3O)cc2Cl)cc1 [Example 356]
0.8	1.93	8.11	COc1cc(OCc2cccc(CNC(=O)OC(C)(C)C)c2)c(Cl)cc1C(=O)O[C@H]1[C@@H](OC)O[C@H](CO)[C@@H](O)[C@@H]1O [Example 361]
4.4	3.88	12.3	COc1cc(OCc2cccc(NC(=O)CCCC(=O)OC(C)(C)C)c2)c(Cl)cc1C(=O)O[C@@H]1[C@@H](O)[C@@H](OC)O[C@H](CO)[C@H]1O [Example 364]
0.4	0.86	1.44	C#CCCCCCCCn1c(COc2c(Cl)cc(C(=O)O[C@H]3[C@@H](OC)O[C@H](CO)[C@@H](O)[C@@H]3O)c(C)c2Cl)nc2ccccc21 [Example 371]
2.4	2.89	15	COc1cc(OCc2cccc(CNC(=O)CCC(=O)OC(C)(C)C)c2)c(Cl)cc1C(=O)O[C@H]1[C@@H](OC)O[C@H](CO)[C@@H](O)[C@@H]1O [Example 372]
4.1	6.44	26.7	COc1cc(OCc2cccc(CNC(=O)CCCC(=O)OC(C)(C)C)c2)c(Cl)cc1C(=O)O[C@H]1[C@@H](OC)O[C@H](CO)[C@@H](O)[C@@H]1O [Example 373]
